For data set [1] the following is noted: cited from earlier work.
Another data set has as its system HCA solid type [HCA实体型]. As to conditions: cited from earlier work.
For data set [2] the following is noted: in vivo and in vitro; cited from earlier work.
The test system of data set [3] is 5180 solid type [5180实体型]. The conditions noted are these: cited from earlier work.
For data set [4] the following is noted: cited from earlier work. This is another data set of the same source.
The conditions of data set [5]: in vivo; cited from earlier work.
The subject of data set [6] is HCA ascites type [HCA腹水型]. The conditions noted are these: mice bearing HCA ascites type; cited from earlier work.
The conditions of data set [7]: cited from earlier work. The source holds these as a separate data set.
Data set [8] has as its system Lewis lung cancer [Lewis肺癌]. The conditions noted are these: solid tumor; cited from earlier work.
The test system of data set [9] is 5180 ascites type [5180腹水型]. The conditions noted are these: mice bearing 5180 ascites type; cited from earlier work.
Data set [10] has as its system lung cancer A549 tumor cells [肺癌A549肿瘤细胞]. Briefly: MTT assay, A549 lung cancer tumor cells (Example 33). In kind it is cell-based. The conditions noted are these: 48 h, positive control. In general terms: Tetrazolium assays rely on reduction of a dye to a coloured formazan, in cell work by metabolically active cells.

The source of these data is patent CN101993370A, “蓝萼甲素酸酯衍生物及其制备方法和应用” (SHANGHAI JINHAO PHARMACEUTICAL DEVELOPMENT Co Ltd, priority 2009, dated 2011).

As to `C=C1C(=O)[C@@]23[C@H](O)C[C@@H]4C(C)(C)C(=O)CC[C@@]4(C)[C@@H]2CC[C@@H]1[C@H]3O` [蓝萼甲素], the “solubility in nonpolar solvents” value in data set [1] (chloroform and other nonpolar solvents) was “易溶于氯仿等非极性溶剂”. Besides, the solubility in water entry in data set [1] (water) is recorded as “在水中不溶”. Moreover, the “inhibition of tumor growth” value with HCA solid type [HCA实体型] is “能抑制”. In [2], the antitumor effect entry is recorded as “较强的抗肿瘤作用”, the antitumor spectrum entry is reported as “抗瘤谱较广” and the “dose dependence of antitumor effect” value is reported as “呈剂量依赖性”. Besides, the “inhibition of tumor growth” value in data set [3] was “能抑制”. Also, in data set [4], the “anticancer effect in vitro” value is recorded as “明显的抗癌作用”. Besides, in data set [5], the elimination entry is reported as “药物在体内消除很快” and the half-life result is reported as “半衰期短”. Moreover, in data set [6], the life prolongation rate entry is recorded as “明显增加”. Moreover, the “requirement for efficacy in vivo” value in [7] is on record as “需大剂量长时间用药才能产生药效”. For the same molecule, the “inhibition of tumor growth” value in data set [8] is reported as “能抑制”. The life prolongation rate entry in data set [9] is listed as “明显增加”.

As to `COc1cccc2c1C(=O)c1c(O)c3c(c(O)c1C2=O)C[C@@](O)(C(=O)CO)C[C@@H]3O[C@H]1C[C@H](N)[C@H](O)[C@H](C)O1` [阿霉素], the “A value (490nm)” value in data set [10] (0.01l/ml) was determined as 0.452 ± 0.057; in data set [10] (0.1μl/ml) it was 0.406 ± 0.075; in [10] (1μl/ml), 0.370 ± 0.087. Moreover, the inhibition rate in data set [10] (0.01l/ml) turned out to be 59.46%; in data set [10] (0.1μl/ml), 73.31%; in data set [10] (1μl/ml), 81.21%.
